Where two headings read alike, the source gives them in different places. Values belong to the molecule of their own block, whether it stands above or below them.
Tests used:
[1] = test system: P. falciparum 3D7 strain parasites; experiment: microbe, parasite or virus in culture; conditions: Plasmodium falciparum, 3D7, 72 h, read-out: Pf3D7 IC50
G9a [2] = target: T1, G9a (Homo sapiens, UniProt Q96KQ7); conditions: for IC50: read-out: G9a IC50
T1 sequence (Q96KQ7 1-1210): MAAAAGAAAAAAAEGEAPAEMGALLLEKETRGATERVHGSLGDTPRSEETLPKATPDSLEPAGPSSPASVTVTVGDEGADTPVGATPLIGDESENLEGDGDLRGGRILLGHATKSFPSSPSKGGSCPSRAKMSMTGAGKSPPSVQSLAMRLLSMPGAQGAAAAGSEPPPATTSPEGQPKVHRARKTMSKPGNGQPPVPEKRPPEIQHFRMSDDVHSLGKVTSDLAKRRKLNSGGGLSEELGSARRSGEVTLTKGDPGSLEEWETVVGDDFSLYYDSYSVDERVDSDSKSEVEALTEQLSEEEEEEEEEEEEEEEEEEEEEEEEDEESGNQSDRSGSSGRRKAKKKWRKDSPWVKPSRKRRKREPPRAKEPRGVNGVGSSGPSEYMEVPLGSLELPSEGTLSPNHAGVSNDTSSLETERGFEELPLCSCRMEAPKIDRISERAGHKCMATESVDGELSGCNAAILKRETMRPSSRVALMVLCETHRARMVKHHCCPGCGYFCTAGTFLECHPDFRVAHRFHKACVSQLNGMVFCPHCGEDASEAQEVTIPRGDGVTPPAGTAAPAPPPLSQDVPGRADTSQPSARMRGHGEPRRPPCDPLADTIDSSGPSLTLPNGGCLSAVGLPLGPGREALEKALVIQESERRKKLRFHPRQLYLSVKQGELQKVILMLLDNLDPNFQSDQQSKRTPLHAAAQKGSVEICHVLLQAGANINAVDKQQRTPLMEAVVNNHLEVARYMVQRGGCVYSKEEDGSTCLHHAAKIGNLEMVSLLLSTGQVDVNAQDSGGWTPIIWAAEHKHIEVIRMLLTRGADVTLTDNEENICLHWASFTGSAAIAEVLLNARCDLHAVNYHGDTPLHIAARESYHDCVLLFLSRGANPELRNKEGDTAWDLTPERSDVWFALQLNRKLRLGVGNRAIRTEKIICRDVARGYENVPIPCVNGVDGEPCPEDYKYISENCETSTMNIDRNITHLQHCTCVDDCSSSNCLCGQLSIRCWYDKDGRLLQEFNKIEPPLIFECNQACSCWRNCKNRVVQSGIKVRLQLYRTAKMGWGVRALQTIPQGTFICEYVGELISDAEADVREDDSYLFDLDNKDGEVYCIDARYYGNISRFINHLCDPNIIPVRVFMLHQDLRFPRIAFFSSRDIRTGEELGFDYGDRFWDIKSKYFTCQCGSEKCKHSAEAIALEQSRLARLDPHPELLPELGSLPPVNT

HepG2 cells [3] = conditions: read-out: HepG2 IC50; Tables ST1 and ST2
[4] = test system: P. falciparum 3D7 strain parasites; conditions: parasite-killing activity reported earlier, cited from earlier work; for IC50: read-out: Pf3D7 IC50
[5] = test system: synchronised P. falciparum parasites; experiment: In vitro stage-dependent antimalarial activity; type: cell-based; conditions: 10× IC50, three distinct 12 hour periods of the intra-erythrocytic life cycle; re-invasion and out-growth
Description: Stage-specific compound treatment effects were elucidated using highly synchronized parasites in 48-well plates with a starting parasitemia of 0.75% and a hematocrit of 2%. […] After treatment, parasites were washed with warm RPMI 1640 medium and placed back into culture without test compound for analysis of re-invasion after completion of the cell cycle in which treatment occurred. Washed parasites after treatment were also diluted 1 : 16 and allowed to grow without compound for an additional two cell cycles (4 days). Parasitemia after re-invasion or after 4 day growth was quantified on infected cells fixed in 0.025% glutaraldehyde and stained with 2× SYBR Green I (Lonza) in PBS.

[6] = test system: H3K4me3 levels in P. falciparum 3D7 parasites; experiment: Parasite histone methylation analysis (Western blot), H3K4me3; type: cell-based; conditions: 12 h treatment, relative to DMSO control
Description: (§1) Parasites were treated with drugs for 12 h. After treatment, infected red blood cells were collected and lysed with PBS containing 0.15% saponin. Free parasites were lysed by bath sonication in 1% SDS-PBS and analysed by Western Blot. Blots were probed with primary antibodies specific for H3K4me3 (Abcam ab1012 1 : 1000), H3 core (Abcam ab1791, 1 : 3000) and H3K9me3 (Abcam ab8898, 1 : 1000) diluted in TBS-T (50 mM Tris pH 7.5, 150 mM NaCl, 0.05% Tween-20, 5% BSA), followed by anti-mouse HRP (GE NA931V) or anti-rabbit HRP (GE NA934V) secondary antibodies.

[7] = test system: H3K9me3 levels in P. falciparum 3D7 parasites; experiment: Parasite histone methylation analysis (Western blot), H3K9me3; type: cell-based; conditions: 12 h treatment, relative to DMSO control
Description: as §1

PfSET7 = experiment: Initial activity assays using PfSET7; type: biochemical, P. falciparum; conditions: data not shown
[8] = test system: P. falciparum 3D7 strain parasites; conditions: P. falciparum 3D7, three-day SYBR Green I assay
HepG2 cells [9] = experiment: cells; conditions: Homo sapiens, HepG2, read-out: anti-HepG2 IC50
[10] = test system: G9a activity in cells (H3K9me2 levels); conditions: reduction of H3K9me2 levels, ICW; cited from earlier work
G9a [11] = target: T1, G9a; conditions: read-out: G9a IC50; CLOT assay; cited from earlier work
[12] = SPA, 5 nM G9a, H3 1-25 peptide 0.8 μM, 3H-SAM 8 μM

IC50 [1]: 8 nM
Compound: CCN(CC)CCCC(C)Nc1ccnc2cc(Cl)ccc12 (centres unmarked) [Chloroquine]

G9a/Pf3D7 (G9a [2]; ratio of G9a IC50 to Pf3D7 IC50): > 6.6
IC50 (G9a [2]; [12]): > 1000 nM
IC50 (HepG2 cells [3]): 15300 nM
Compound: COc1cc2nc(N3CCOCC3)nc(NC3CCN(Cc4ccccc4)C3)c2cc1OC (centres unmarked) [S15]
IC50 ([4]; Tables ST1-ST4, ref 1 (supplement)): 152 nM

Compound: COc1cc2nc(N3CCCN(C)CC3)nc(NC3CCN(Cc4ccccc4)CC3)c2cc1OC [compound 1, reference compound]
stage-dependent killing phenotype [5]: erythrocytic stage-independent killing phenotype
H3K4me3 levels [6]: decrease
H3K9me3 levels [7]: decrease
PfSET7 as target (PfSET7): PfSET7 not to be the target

Pf3D7 IC50 [8]: poor potency against Plasmodium
G9a IC50 (G9a [2]; [12]): good G9a inhibition
IC50 (G9a [2]; [12]): 123 nM
Compound: COc1cc2nc(NCCCN(C)C)nc(NC3CCN(Cc4ccccc4)CC3)c2cc1OC [compound 17]

Compound: COc1cc2nc(N3CCCN(C)CC3)nc(NC3CCN(C)CC3)c2cc1OC [compound 38]
Pf3D7 IC50 ([4]; P. falciparum 3D7): low Pf3D7 activity
IC50 ([4]; P. falciparum 3D7): > 300 nM

Compound: COc1cc2nc(N3CCN(C)CC3)nc(NC3CCN(C)CC3)c2cc1OC [compound 39]
Pf3D7 IC50 ([4]; P. falciparum 3D7): low Pf3D7 activity
IC50 ([4]; P. falciparum 3D7): > 300 nM

IC50 (G9a [2]; [12]): 591 nM
IC50 (HepG2 cells [9]): > 10000 nM
Compound: COc1cc2nc(N3CCCCC3)nc(NC3CCN(C)CC3)c2cc1OC [compound 40]

Pf3D7 IC50 [8]: lost activity against Plasmodium
IC50 (G9a [2]; [12]): > 1000 nM
Compound: COc1cc2c(NC3CCN(C)CC3)nc(NCCCN(C)C)nc2cc1OCc1ccccc1 [compound 63]

Compound: COc1cc2c(NC3CCN(C)CC3)nc(N3CCCN(C)CC3)nc2cc1OCCCN1CCCCC1 [compound 64]
IC50 ([4]; P. falciparum 3D7): > 2000 nM
G9a activity in cells [10]: moderate G9a activity in cells

Compound: COc1cc2c(NC3CCN(C)CC3)nc(N3CCCN(C)CC3)nc2cc1OCCCN1CCCC1 [compound 65]
IC50 ([4]; P. falciparum 3D7): > 2000 nM
G9a activity in cells [10]: moderate G9a activity in cells

Compound: COc1cc2c(NC3CCN(C)CC3)nc(N3CCCN(C)CC3)nc2cc1OCCCN(C)C [compound 66, reference compound]
IC50 ([4]; P. falciparum 3D7): > 2000 nM

Compound: COc1cc2c(NC3CCN(C)CC3)nc(N3CCCN(C)CC3)nc2cc1OCCN(C)C [compound 67]
IC50 ([4]; P. falciparum 3D7): > 2000 nM

Compound: COCCCCOc1cc2nc(N3CCCN(C)CC3)nc(NC3CCN(C)CC3)c2cc1OC [compound 71]
IC50 (G9a [11]): > 10000 nM

IC50 (G9a [2]; [12]): 21 nM
Compound: COc1cc2nc(N3CCN(C)CC3)cc(NC3CCN(Cc4ccccc4)CC3)c2cc1OC [compound 89, N-(1-Benzylpiperidin-4-yl)-6,7-dimethoxy-2-(4-methylpiperazin-1-yl)quinolin-4-amine]
stage-dependent killing phenotype [5]: erythrocytic stage-independent killing phenotype
H3K4me3 levels [6]: decrease
H3K9me3 levels [7]: decrease

IC50 (G9a [2]; [12]): 119 nM
Compound: COc1cc2nc(N3CCC(OC)CC3)cc(NC3CCN(Cc4ccccc4)CC3)c2cc1OC [compound 90, N-(1-Benzylpiperidin-4-yl)-6,7-dimethoxy-2-(4-methoxypiperidin-1-yl)quinolin-4-amine]
stage-dependent killing phenotype [5]: erythrocytic stage-independent killing phenotype
H3K4me3 levels [6]: decrease
H3K9me3 levels [7]: decrease
